Reference: patent US20190343908A1, “Therapeutic Combination for the Treatment of Cancer” (Nerium Biotechnology Inc., priority 2011, published 2019)

Experiments:
[1] = test system: A375 melanoma cancer cell line; experiment: Sulforhodamine B viability assay, A375; format: cell-based, human; conditions: for ABSORBANCE: 0.1 μg/mL cisplatin; for Average absorbance, SRB 24 h / Average absorbance, SRB 48 h / Average absorbance, SRB 72 h: A375 Run 1
Text: (§1) Three different viability assays were chosen to complement each other and yielded results dependent on concentration and cell line: the Methyl Tetrazolium dye assay, the Sulforhodamine B fluorescent dye assay, and the Crystal Violet dye assay.
The Sulforhodamine B and Crystal Violet assays provide information about protein and were used to complement the Methyl-Tetrazolium dye assay. […] It is used for the quantification of cellular proteins of cultured cells. The assay using Crystal Violet, a dye that binds electrostatically to proteins and stains DNA, provides a reliable, simple assay for measuring viability of cells.
(§2) The Methyl Tetrazolium, Sulforhodamine B, and Crystal Violet assays were used to assess cell viabilities. The incubation times were 24 hours, 48 hours, and 72 hours. The Nerium oleander extract Anvirzel™ (a hot water extract of oleander obtained from Salud Integral, Honduras) was tested in concentrations ranging from 0.01 ng/mL to 10 ng/mL.
(§3) Cells were detached by trypsinization (Trypsin-0.25% EDTA, Invitrogen, 25200-072) during the logarithmic phase of culture growth and plated in 96-well plates (18.000 cells/well) (Corning, Costar 359) in a final volume of 200 μl of medium per well. […] The absorbance was measured after 24 hours, 48 hours, and 72 hours of incubation.
For the Sulforhodamine B assay, 96-well plates were fixed by 10% trichloroacetic acid (Fluka, 91228) and were incubated at 4° C. for 1 hour. Afterwards, plates were rinsed with water and cells were stained with 0.4% Sulforhodamine B (Sigma, 341738), dissolved in 1% acetic acid (Carlo Ebra, 401422) for 15 minutes at room temperature (RT). The unbound stain was washed twice with 1% acetic acid. Finally, 10 mM Tris Buffer pH 10.5 (Sigma, T6791) was added to dissolve the dye.
(§4) The optical density of each plate was measured on a μQuant spectrophotometer and the data were analyzed with Gen5 software (μQuant Biomolecular Spectrophotometer MQX200 and Gen5™ Microplate Data Collection & Analysis software, BioTek® Instruments. Inc, April 2008). Absorbance was measured at 570 nm for all assays and a second wavelength was measured in order to subtract noise. For the Methyl-Tetrazolium assay this second wavelength was 630 nm and for the Sulforhodamine B and Crystal Violet assays it was 690 nm.

[2] = test system: MCF-7 (human breast cancer); experiment: Methyl-Tetrazolium viability assay, MCF-7; format: cell-based; design: key: absorbance (optical density) at 570 nm, second wavelength subtracted
Text: as §1
The Methyl-Tetrazolium dye assay measures the activity of enzymes in mitochondria. The dye precursor is taken up by cells, where it undergoes reduction to the purple formazan. It measures only the mitochondrial activity and, thus, it is not always a reliable indication of whether the cells themselves are alive or dead, since even a recently dead cell has […] enzyme activity in mitochondria. Intracellular glucose concentration, pH, and time before assay all affect the measurements.
as §2, §3
For the Methyl-Tetrazolium assay, the dye (Sigma, M2128; 5 mg/mL, diluted in phosphate-buffered saline) was added to each well and plates were incubated for 3 hours at 37° C. After the end of the incubation period, the medium was discarded and the cells were rinsed with phosphate-buffered saline. Finally, the formazan crystals were dissolved in dimethylsulphoxide (Sigma, D4540).
as §4

## N.N.[Cl][Pt][Cl] [cisplatin]
[1]; A375, 48 h
  ABSORBANCE: 2.421
[1]; A375, 72 h
  ABSORBANCE: 2.487
[1]; 0.1 μg/ml CDDP
  Average absorbance, SRB 24 h: 2.072
  Average absorbance, SRB 48 h: 2.421
  Average absorbance, SRB 72 h: 2.487
[1]; 1 μg/ml CDDP
  Average absorbance, SRB 24 h: 1.579
  Average absorbance, SRB 48 h: 1.987
  Average absorbance, SRB 72 h: 2.256
[1]; 10 μg/ml CDDP
  Average absorbance, SRB 24 h: 1.117
  Average absorbance, SRB 48 h: 1.678
  Average absorbance, SRB 72 h: 1.913
[1]; 100 μg/ml CDDP
  Average absorbance, SRB 24 h: 1.283
  Average absorbance, SRB 48 h: 1.782
  Average absorbance, SRB 72 h: 1.319
[1]; A375 Run 2, 24 h, 0.1 μg/ml CDDP
  Average absorbance SRB: 2.189
[1]; A375 Run 2, 24 h, 1 μg/ml CDDP
  Average absorbance SRB: 1.916
[1]; A375 Run 2, 24 h, 10 μg/ml CDDP
  Average absorbance SRB: 1.827
[1]; A375 Run 2, 24 h, 100 μg/ml CDDP
  Average absorbance SRB: 1.939
[1]; A375 Run 2, 48 h, 0.1 μg/ml CDDP
  Average absorbance SRB: 2.571
[1]; A375 Run 2, 48 h, 1 μg/ml CDDP
  Average absorbance SRB: 1.366
[1]; A375 Run 2, 48 h, 10 μg/ml CDDP
  Average absorbance SRB: 1.265
[1]; A375 Run 2, 48 h, 100 μg/ml CDDP
  Average absorbance SRB: 1.293
[1]; A375 Run 2, 72 h, 0.1 μg/ml CDDP
  Average absorbance SRB: 2.634
[1]; A375 Run 2, 72 h, 1 μg/ml CDDP
  Average absorbance SRB: 2.085
[1]; A375 Run 2, 72 h, 10 μg/ml CDDP
  Average absorbance SRB: 1.617
[1]; A375 Run 2, 72 h, 100 μg/ml CDDP
  Average absorbance SRB: 1.491
[1]; A375 Run 3, 24 h, 0.1 μg/ml CDDP
  Average absorbance SRB: 1.597
[1]; A375 Run 3, 24 h, 1 μg/ml CDDP
  Average absorbance SRB: 1.126
[1]; A375 Run 3, 24 h, 10 μg/ml CDDP
  Average absorbance SRB: 1.294
[1]; A375 Run 3, 24 h, 100 μg/ml CDDP
  Average absorbance SRB: 0.982
[1]; A375 Run 3, 48 h, 0.1 μg/ml CDDP
  Average absorbance SRB: 2.175
[1]; A375 Run 3, 48 h, 1 μg/ml CDDP
  Average absorbance SRB: 1.83
[1]; A375 Run 3, 48 h, 10 μg/ml CDDP
  Average absorbance SRB: 1.586
[1]; A375 Run 3, 48 h, 100 μg/ml CDDP
  Average absorbance SRB: 1.572
[1]; A375 Run 3, 72 h, 0.1 μg/ml CDDP
  Average absorbance SRB: 2.184
[1]; A375 Run 3, 72 h, 1 μg/ml CDDP
  Average absorbance SRB: 1.491
[1]; A375 Run 3, 72 h, 10 μg/ml CDDP
  Average absorbance SRB: 1.571
[1]; A375 Run 3, 72 h, 100 μg/ml CDDP
  Average absorbance SRB: 1.271
[2]; MCF-7, Run 2, 24 h, 0.1 μg/ml CDDP
  MTT Average: 0.263
[2]; MCF-7, Run 2, 24 h, 1 μg/ml CDDP
  MTT Average: 0.027
[2]; MCF-7, Run 2, 24 h, 10 μg/ml CDDP
  MTT Average: 0.124
[2]; MCF-7, Run 2, 24 h, 100 μg/ml CDDP
  MTT Average: 0.029
[2]; MCF-7, Run 2, 48 h, 0.1 μg/ml CDDP
  MTT Average: 0.37
[2]; MCF-7, Run 2, 48 h, 1 μg/ml CDDP
  MTT Average: 0.025
[2]; MCF-7, Run 2, 48 h, 10 μg/ml CDDP
  MTT Average: 0.045
[2]; MCF-7, Run 2, 48 h, 100 μg/ml CDDP
  MTT Average: 0.029
[2]; MCF-7, Run 2, 72 h, 0.1 μg/ml CDDP
  MTT Average: 0.39
[2]; MCF-7, Run 2, 72 h, 1 μg/ml CDDP
  MTT Average: 0.038
[2]; MCF-7, Run 2, 72 h, 10 μg/ml CDDP
  MTT Average: 0.028
[2]; MCF-7, Run 2, 72 h, 100 μg/ml CDDP
  MTT Average: 0.013
[2]; MCF-7, Run 3, 24 h, 0.1 μg/ml CDDP
  MTT Average: 0.516
[2]; MCF-7, Run 3, 24 h, 1 μg/ml CDDP
  MTT Average: 0.039
[2]; MCF-7, Run 3, 24 h, 10 μg/ml CDDP
  MTT Average: 0.135
[2]; MCF-7, Run 3, 24 h, 100 μg/ml CDDP
  MTT Average: 0.026
[2]; MCF-7, Run 3, 48 h, 0.1 μg/ml CDDP
  MTT Average: 0.525
[2]; MCF-7, Run 3, 48 h, 1 μg/ml CDDP
  MTT Average: 0.041
[2]; MCF-7, Run 3, 48 h, 10 μg/ml CDDP
  MTT Average: 0.03
[2]; MCF-7, Run 3, 48 h, 100 μg/ml CDDP
  MTT Average: 0.032
[2]; MCF-7, Run 3, 72 h, 0.1 μg/ml CDDP
  MTT Average: 0.546
[2]; MCF-7, Run 3, 72 h, 1 μg/ml CDDP
  MTT Average: 0.035
[2]; MCF-7, Run 3, 72 h, 10 μg/ml CDDP
  MTT Average: 0.032
[2]; MCF-7, Run 3, 72 h, 100 μg/ml CDDP
  MTT Average: 0.018
[2]; MCF-7 Run 1, 24 h, 0.1 μg/ml CDDP
  MTT Average: 0.574
[2]; MCF-7 Run 1, 24 h, 1 μg/ml CDDP
  MTT Average: 0.066
[2]; MCF-7 Run 1, 24 h, 10 μg/ml CDDP
  MTT Average: 0.194
[2]; MCF-7 Run 1, 24 h, 100 μg/ml CDDP
  MTT Average: 0.034
[2]; MCF-7 Run 1, 48 h, 0.1 μg/ml CDDP
  MTT Average: 0.719
[2]; MCF-7 Run 1, 48 h, 1 μg/ml CDDP
  MTT Average: 0.051
[2]; MCF-7 Run 1, 48 h, 10 μg/ml CDDP
  MTT Average: 0.069
[2]; MCF-7 Run 1, 48 h, 100 μg/ml CDDP
  MTT Average: 0.025
[2]; MCF-7 Run 1, 72 h, 0.1 μg/ml CDDP
  MTT Average: 0.788
[2]; MCF-7 Run 1, 72 h, 1 μg/ml CDDP
  MTT Average: 0.048
[2]; MCF-7 Run 1, 72 h, 10 μg/ml CDDP
  MTT Average: 0.047
[2]; MCF-7 Run 1, 72 h, 100 μg/ml CDDP
  MTT Average: 0.023
